Data set [1] has as its system 3T3-L1. Briefly: Adipogenetic activity in mouse 3T3L1 cells assessed as increase in triglyceride level at 30 uM relative to control. It counts as functional.
Data set [2] is described as follows: Cytotoxicity against mouse 3T3L1 cells assessed as cell viability at 30 uM by CCK8 assay relative to control. The format is cell-based. To be noted: 3T3-L1 cells, read-out: Activity. Background: Tetrazolium assays rely on reduction of a dye to a coloured formazan, in cell work by metabolically active cells.
Data set [3] is described as follows: Cytotoxicity against mouse 3T3L1 cells assessed as cell viability at 1 uM by CCK8 assay relative to control. The format is cell-based. Conditions: 3T3-L1 cells, read-out: Activity.
The nature of data set [4]: Cytotoxicity against mouse 3T3L1 cells assessed as cell viability at 0.3 uM by CCK8 assay relative to control. The format is cell-based. Conditions: 3T3-L1 cells, read-out: Activity.
The nature of data set [5]: Cytotoxicity against mouse 3T3L1 cells assessed as cell viability at 3 uM by CCK8 assay relative to control. Conditions: 3T3-L1 cells, read-out: Activity. The format is cell-based.
Data set [6] in a line: Cytotoxicity against mouse 3T3L1 cells assessed as cell viability at 10 uM by CCK8 assay relative to control. It counts as cell-based. To be noted: 3T3-L1 cells, read-out: Activity.
For data set [7], the system named is 3T3-L1. Kind of data set: Adipogenetic activity in mouse 3T3L1 cells assessed as increase in triglyceride level at 10 uM relative to control. The format is functional.
For data set [8], the system named is 3T3-L1. Kind of data set: Increase of 2-deoxyglucose uptake in mouse 3T3L1 cells using 2-deoxy-D-(2,6-3H)-glucose at 1 uM after 2 hrs by liquid scintillation counting. The format is functional, cell-based.
The test system of data set [9] is 3T3-L1. Briefly: Increase of adiponectin mRNA expression in mouse 3T3L1 cells at 10 uM by RT-PCR analysis relative to beta-actin mRNA level. The format is functional.
Data set [10] concerns 3T3-L1. Briefly: Increase of aP2 mRNA expression in mouse 3T3L1 cells at 3 uM by RT-PCR analysis relative to beta-actin mRNA level. It counts as functional.
Data set [11] relates to 3T3-L1. Briefly: Increase of aP2 mRNA expression in mouse 3T3L1 cells at 10 uM by RT-PCR analysis relative to beta-actin mRNA level. It counts as functional.
The subject of data set [12] is 3T3-L1. Kind of data set: Increase of C/EBPalpha mRNA expression in mouse 3T3L1 cells at 30 uM by RT-PCR analysis relative to beta-actin mRNA level. The format is functional.
In data set [13] the test system is 3T3-L1. Kind of data set: Increase of PPARgamma2 mRNA expression in mouse 3T3L1 cells at 10 uM by RT-PCR analysis relative to beta-actin mRNA level. The format is functional.
In data set [14] the test system is 3T3-L1. Kind of data set: Increase of C/EBPalpha mRNA expression in mouse 3T3L1 cells at 10 uM by RT-PCR analysis relative to beta-actin mRNA level. The format is functional.
Data set [15] concerns 3T3-L1. Kind of data set: Increase of GLUT4 mRNA expression in mouse 3T3L1 cells at 3 uM by RT-PCR analysis relative to beta-actin mRNA level. The format is functional.
Data set [16] relates to 3T3-L1. Briefly: Increase of aP2 mRNA expression in mouse 3T3L1 cells at 30 uM by RT-PCR analysis relative to beta-actin mRNA level. The format is functional.
Data set [17] relates to 3T3-L1. Kind of data set: Increase of C/EBPbeta mRNA expression in mouse 3T3L1 cells at 10 uM by RT-PCR analysis relative to beta-actin mRNA level. The format is functional.
The target in data set [18] is T1, Peroxisome proliferator-activated receptor gamma (Homo sapiens) (UniProt P37231).
T1 sequence (whole entry): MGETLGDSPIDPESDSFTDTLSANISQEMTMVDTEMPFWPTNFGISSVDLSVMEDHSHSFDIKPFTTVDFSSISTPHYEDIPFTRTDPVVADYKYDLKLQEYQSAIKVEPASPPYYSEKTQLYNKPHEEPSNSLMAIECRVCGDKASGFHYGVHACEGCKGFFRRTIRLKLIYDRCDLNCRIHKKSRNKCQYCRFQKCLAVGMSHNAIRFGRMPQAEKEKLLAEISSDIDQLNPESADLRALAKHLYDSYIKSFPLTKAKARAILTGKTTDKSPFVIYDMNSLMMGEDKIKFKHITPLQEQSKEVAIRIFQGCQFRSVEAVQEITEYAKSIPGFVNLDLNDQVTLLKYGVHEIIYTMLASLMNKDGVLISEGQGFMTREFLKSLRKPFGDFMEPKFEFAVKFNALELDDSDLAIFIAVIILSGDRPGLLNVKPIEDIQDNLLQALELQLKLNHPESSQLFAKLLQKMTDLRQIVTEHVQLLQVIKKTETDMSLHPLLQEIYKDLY
Briefly: Agonist activity at PPARgamma (unknown origin) at 0.01 to 100 uM by nuclear receptor cofactor assay.

The subject of data set [19] is 3T3-L1. Briefly: Increase of C/EBPdelta mRNA expression in mouse 3T3L1 cells at 10 uM by RT-PCR analysis relative to beta-actin mRNA level. The format is functional.
Data set [20] concerns 3T3-L1. Kind of data set: Increase of GLUT4 mRNA expression in mouse 3T3L1 cells at 10 uM by RT-PCR analysis relative to beta-actin mRNA level. It counts as functional.
The test system of data set [21] is 3T3-L1. Kind of data set: Increase of C/EBPdelta mRNA expression in mouse 3T3L1 cells at 30 uM by RT-PCR analysis relative to beta-actin mRNA level. The format is functional.
Data set [22] concerns 3T3-L1. Briefly: Increase of adiponectin mRNA expression in mouse 3T3L1 cells at 3 uM by RT-PCR analysis relative to beta-actin mRNA level. It counts as functional.
The test system of data set [23] is 3T3-L1. Briefly: Increase of C/EBPalpha mRNA expression in mouse 3T3L1 cells at 3 uM by RT-PCR analysis relative to beta-actin mRNA level. The format is functional.
For data set [24], the system named is 3T3-L1. Kind of data set: Increase of C/EBPdelta mRNA expression in mouse 3T3L1 cells at 3 uM by RT-PCR analysis relative to beta-actin mRNA level. The format is functional.
The subject of data set [25] is 3T3-L1. Kind of data set: Increase of adiponectin mRNA expression in mouse 3T3L1 cells at 30 uM by RT-PCR analysis relative to beta-actin mRNA level. The format is functional.
Data set [26] concerns 3T3-L1. Briefly: Increase of 2-deoxyglucose uptake in mouse 3T3L1 cells using 2-deoxy-D-(2,6-3H)-glucose after 2 hrs by liquid scintillation counting. It counts as functional, cell-based.
Data set [27] relates to 3T3-L1. Kind of data set: Increase of GLUT4 mRNA expression in mouse 3T3L1 cells at 30 uM by RT-PCR analysis relative to beta-actin mRNA level. It counts as functional.
Data set [28] relates to 3T3-L1. Kind of data set: Increase of PPARgamma2 mRNA expression in mouse 3T3L1 cells at 30 uM by RT-PCR analysis relative to beta-actin mRNA level. It counts as functional.
For data set [29], the system named is 3T3-L1. Briefly: Increase of C/EBPbeta mRNA expression in mouse 3T3L1 cells at 3 uM by RT-PCR analysis relative to beta-actin mRNA level. The format is functional.
The test system of data set [30] is 3T3-L1. Briefly: Increase of C/EBPbeta mRNA expression in mouse 3T3L1 cells at 30 uM by RT-PCR analysis relative to beta-actin mRNA level. The format is functional.
In data set [31] the test system is 3T3-L1. Briefly: Increase of PPARgamma2 mRNA expression in mouse 3T3L1 cells at 3 uM by RT-PCR analysis relative to beta-actin mRNA level. The format is functional.

The source of these data is ChEMBL document CHEMBL2413056, “Adipogenetic effects of retrofractamide A derivatives in 3T3-L1 cells” (Bioorg Med Chem Lett, 2013).

Active and inactive are the calls of the source. The rule behind the calls is not given here.

As to `CCCCNC(=O)/C=C/C=C/CC/C=C/c1ccc2c(c1)OCO2`, the figures for the Activity in the data set on 3T3-L1 [1] and with 3T3-L1 [7] were 46.2% and 55.9%, respectively. Moreover, the viability at 30 µM in data set [2] stood at 78.7%. In addition, the viability at 1 µM in data set [3] was 94.8%. Also, in data set [4], the viability at 0.3 µM turned out to be 96.2%. The viability at 3 µM in [5] was determined as 87.1%. The viability at 10 µM in data set [6] came out at 69.3%.
`CCCNC(=O)/C=C/C=C/CC/C=C/c1ccc2c(c1)OCO2`: the values for the Activity in the data set with 3T3-L1 [1] and with 3T3-L1 [7] were 18.7% and 42.7%, respectively. Also, the viability at 30 µM in data set [2] came to 68.4%. Moreover, the viability at 1 µM in [3] stood at 104%. In addition, the viability at 0.3 µM in [4] was found to be 101%. Besides, the viability at 3 µM in data set [5] came out at 102%. Further, in [6], the viability at 10 µM was 87.5%.
As to `OC/C=C/C=C/CC/C=C/c1ccc2c(c1)OCO2`, in the data set with 3T3-L1 [7], the Activity is reported as 0.6%.
Regarding `COC(=O)/C=C/C=C/CC/C=C/c1ccc2c(c1)OCO2`, the Activity in the data set on 3T3-L1 [1] is listed as 4%; in the data set on 3T3-L1 [7], 4.6%.
`CC(C)NC(=O)/C=C/C=C/CC/C=C/c1ccc2c(c1)OCO2`: the Activity in the data set with 3T3-L1 [1] was determined as 43.1%; in the data set with 3T3-L1 [7], 39.4%. In addition, in data set [2], the viability at 30 µM came out at 102%. In addition, the viability at 1 µM in [3] amounted to 94.8%. Besides, the viability at 0.3 µM in data set [4] worked out at 95%. Moreover, the viability at 3 µM in [5] is 96.6%. Moreover, the viability at 10 µM in data set [6] was 96.1%.
Take `O=C(/C=C/C=C/CC/C=C/c1ccc2c(c1)OCO2)N1CCCCC1` [DEHYDROPIPERNOLINE]: in the data set with 3T3-L1 [7], the Activity worked out at 21.6%.
With `Cc1c(C)c2c(c(C)c1O)CCC(C)(COc1ccc(CC3SC(=O)NC3=O)cc1)O2` (stereo not drawn), the outcome in the data set with 3T3-L1 [8] was Active.
As to `CC(C)COC(=O)/C=C/C=C/CC/C=C/c1ccc2c(c1)OCO2`, the Activity in the data set with 3T3-L1 [1] was determined as 21.7%; in the data set on 3T3-L1 [7], 20%. For the same compound, in [2], the viability at 30 µM was found to be 21.7%.
For `CCCCCNC(=O)/C=C/C=C/CC/C=C/c1ccc2c(c1)OCO2`, the Ratio is reported as 1.3 in the data set with 3T3-L1 [9]; 0.86 with 3T3-L1 [10]; 3.18 in the data set on 3T3-L1 [11]; 4.91 in the data set on 3T3-L1 [12]; 1.76 with 3T3-L1 [13]; 1.27 with 3T3-L1 [14]. The Ratio is given as 1.55 in the data set with 3T3-L1 [15]; 3.09 in the data set on 3T3-L1 [16]; 1.6 in the data set with 3T3-L1 [17]; 1.5 in the data set on 3T3-L1 [19]; 3.89 with 3T3-L1 [20]; 2.64 with 3T3-L1 [21]. Also, the Ratio in the data set on 3T3-L1 [22] worked out at 1.04; with 3T3-L1 [23] it was 0.81; in the data set on 3T3-L1 [24], 0.79; in the data set with 3T3-L1 [25], 2.16; with 3T3-L1 [27] it was 4.22; in the data set with 3T3-L1 [28] it was 2.57. Also, the Ratio with 3T3-L1 [29] came to 0.98; in the data set on 3T3-L1 [30], 2.91; in the data set with 3T3-L1 [31], 0.88. Moreover, the Activity is 58.8% with 3T3-L1 [1], 55.4% in the data set with 3T3-L1 [7] and “Dose-dependent effect” in the data set on 3T3-L1 [26]. The viability at 30 µM in data set [2] came to 107%. For the same compound, the viability at 1 µM in data set [3] was found to be 102%. Besides, in data set [18], the outcome was Active. Further, the viability at 0.3 µM in data set [4] is 98.7%. Also, the viability at 3 µM in data set [5] came to 105%. The viability at 10 µM in [6] came out at 99%.
As to `CC(C)CNC(=O)CCCCCCCCc1ccc2c(c1)OCO2`, the Activity was 31.9% in the data set with 3T3-L1 [1] and 13.3% in the data set with 3T3-L1 [7]. For the same compound, in data set [2], the viability at 30 µM is 109%. In addition, in data set [3], the viability at 1 µM was 105%. For the same compound, the viability at 0.3 µM in data set [4] is 99.3%. The viability at 3 µM in [5] stood at 104%. Moreover, the viability at 10 µM in data set [6] was found to be 111%.
With `CC(C)CNC(=O)/C=C/C=C/CC/C=C/c1ccc2c(c1)OCO2` [RETROFRACTAMIDE A], the results for the Activity with 3T3-L1 [1] and in the data set on 3T3-L1 [7] were 22.9% and 38%, respectively. In addition, the viability at 30 µM in [2] was 109%. Moreover, the viability at 1 µM in [3] stood at 98.1%. Besides, the viability at 0.3 µM in [4] amounted to 100%. Also, in data set [5], the viability at 3 µM came out at 109%. For the same compound, the viability at 10 µM in data set [6] was 108%.
